Drawing on US4544659A, “Schistosomicidal acridanone hydrazones” (Hoffman-La Roche Inc., priority 1982, dated 1985), this text covers ED50 and LD50 for two compounds.

One data set concerns Schistosoma mansoni. Put plainly: Schistosomicidal activity in infected mice (reduction in number of worms, single peroral treatment). Format: in vivo, Schistosoma mansoni (Liberia strain) in albino mice. Conditions: po, read-out: VD50 (vermicidal dosage which brings about a 50 percent reduction in the number of worms). The protocol:
Albino mice weighing 15-18 g are infected subcutaneously with 60±5 cercaria of a Liberia strain of Schistosoma mansoni. Forty-six (46) days after infection, the animals are treated once perorally with the test substance. There are 5-10 animals used per substance and dosage. There are 10 untreated animals used as controls. The autopsies are carried out after 60 days. Whereupon worm pairs and individual worms in the mesenteric veins, portal vein and liver are dissected out and counted.
For the evaluation, the percentage reduction in parasites in treated animals in comparison to untreated control animals is calculated. The VD50 is determined according to the Probit method. The VD50 is that vermicidal dosage which brings about a 50 percent reduction in the number of worms.
(§1) The Table which follows contains the results obtained with representative compounds of the invention. In the Table there are given VD50 in mg/kg p.o. and the LD50 in mg/kg in the case of single oral administration to mice.

Data set [1] in a line: Acute toxicity, single oral administration to mice. As to conditions: mouse, in vivo, p.o.
Description: as §1

Bounds are passed on as bounds.

A word on the LD50: it is the dose expected to kill half of the subjects tested. A higher LD50 goes with lower toxicity. For `Cl.Cn1c2ccccc2c(=NNc2nccs2)c2ccccc21` [10-methyl-9-acridanone (2-thiazolyl)hydrazone hydrochloride], the ED50 in the data set with Schistosoma mansoni is 9 mg/kg. Further, the LD50 in data set [1] is greater than 5000 mg/kg.
As to `c1ccc2c(=NN=C3NCCS3)c3ccccc3[nH]c2c1` [9-acridanone (2-thiazolidinylidene)hydrazone], the ED50 in the data set on Schistosoma mansoni amounted to 26 mg/kg. The median lethal dose (LD50) in data set [1] was in the range of 1250 to 2500 mg/kg.
